pIC50: −log10 of the molar value. Like-named read-outs stand apart in the source and are kept apart here. *1 amine or outer side, *2 acyl side, *3 side chain or, on linkers, in order; H or OH if unused. Where a SMILES comes first, the peptide text is derived from it. Bridges are numbered along the chain shown (N, C = ends). [ ]: non-standard residue; d: D form. ξ: configuration not given here. Ala(9-anthryl) = N[C@@H](Cc1c2ccccc2cc2ccccc12)C(=O)O; ξαMeNle(6-ylidene) = CC(CCCC=[*:3])(N[*:1])C(=O)[*:2]; Phe(4-tBu) = CC(C)(C)c1ccc(C[C@H](N)C(=O)O)cc1; Ala(E-styryl) = N[C@@H](C/C=C/c1ccccc1)C(=O)O; Bpa = N[C@@H](Cc1ccc(C(=O)c2ccccc2)cc1)C(=O)O; Phe(3-Cl) = N[C@@H](Cc1cccc(Cl)c1)C(=O)O; Phe(4-Br) = N[C@@H](Cc1ccc(Br)cc1)C(=O)O; Phe(4-I) = N[C@@H](Cc1ccc(I)cc1)C(=O)O; hCha = N[C@@H](CCC1CCCCC1)C(=O)O; Tic = O=C(O)[C@@H]1Cc2ccccc2CN1; Ile(3ξ) = CCC(C)[C@H](N)C(=O)O; AllylGly = C=CC[C@H](N)C(=O)O; Cba = N[C@@H](CC1CCC1)C(=O)O; Dab = NCC[C@H](N)C(=O)O
Key:
hNTS1 receptor = molecular target: T1, hNTS1 receptor (Homo sapiens, UniProt P30989); assay: Competitive radioligand binding assay on the hNTS1 receptor; conditions: membranes of CHO-K1 cells expressing hNTS1
T1 construct: membranes prepared from them
T1 sequence (P30989 whole entry): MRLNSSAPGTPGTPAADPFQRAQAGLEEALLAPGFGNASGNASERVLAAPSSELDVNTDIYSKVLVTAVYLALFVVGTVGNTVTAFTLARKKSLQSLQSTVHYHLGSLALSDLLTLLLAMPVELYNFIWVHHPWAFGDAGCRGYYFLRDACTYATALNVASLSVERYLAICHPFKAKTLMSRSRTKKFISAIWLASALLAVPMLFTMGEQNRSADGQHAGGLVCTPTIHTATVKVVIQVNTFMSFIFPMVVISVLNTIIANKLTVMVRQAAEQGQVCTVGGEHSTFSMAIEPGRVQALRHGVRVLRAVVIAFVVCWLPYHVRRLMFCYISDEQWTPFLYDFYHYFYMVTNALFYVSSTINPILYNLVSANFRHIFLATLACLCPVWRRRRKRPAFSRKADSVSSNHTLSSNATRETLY
Summary of the method: (§1)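 IC50 values came from one-site competition curves against ¹²⁵I-[Tyr³]-NT after 60 min at 25 °C (pH 7.5 Tris, 0.2% BSA), with analogues at 10⁻¹¹–10⁻⁴ M and nonspecific binding set by 10⁻⁵ M NT(8-13). hNTS1 used 15 µg CHO-K1 membranes with […] tracer; hNTS2 used 50 µg 1321N1 membranes with […] tracer.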

hNTS2 receptor = molecular target: T2, hNTS2 receptor (Homo sapiens, UniProt O95665); assay: Competitive radioligand binding assay on the hNTS2 receptor; conditions: for IC50: displacement of 125I-[Tyr3]-NT, read-out: IC50 NTS2 (converted); for IC50 / pIC50: membranes of 1321N1 cells expressing hNTS2; for Selectivity: ratio IC50 for NTS1 : IC50 for NTS2; for pIC50: IC50 NTS2, displacement of 125I-[Tyr3]-NT
T2 construct: membranes prepared from them
T2 sequence (O95665 whole entry): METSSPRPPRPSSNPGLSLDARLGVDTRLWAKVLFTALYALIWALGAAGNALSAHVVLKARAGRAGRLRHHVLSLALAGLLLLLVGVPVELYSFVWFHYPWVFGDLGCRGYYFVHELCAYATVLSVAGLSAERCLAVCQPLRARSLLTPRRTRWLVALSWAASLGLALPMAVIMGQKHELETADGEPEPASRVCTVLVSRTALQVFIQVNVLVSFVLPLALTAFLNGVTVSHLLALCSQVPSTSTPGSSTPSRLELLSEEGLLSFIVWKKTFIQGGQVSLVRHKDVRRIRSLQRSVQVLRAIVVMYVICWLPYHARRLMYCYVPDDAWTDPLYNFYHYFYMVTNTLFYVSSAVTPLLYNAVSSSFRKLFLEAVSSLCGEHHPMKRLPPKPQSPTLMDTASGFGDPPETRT
Summary of the method: as §1

[1] = displacement of 125I-[Tyr3]-NT, read-out: IC50 NTS1
[2] = IC50 NTS1, displacement of 125I-[Tyr3]-NT

Compound | pIC50 (hNTS1 receptor; [1]) | IC50 (hNTS2 receptor) | Selectivity (hNTS2 receptor) | pIC50 (hNTS1 receptor; [2]) | pIC50 (hNTS2 receptor)
CC(C)C[C@H](NC(=O)[C@H](Cc1ccc(C(=O)c2ccccc2)cc1)NC(=O)[C@@H]1CC=CC[C@H](N)C(=O)N[C@@H](CCCCN)C(=O)N[C@@H](CCCCN)C(=O)N1)C(=O)O [compound 160, c[G(All)KKG(All)]F (benzoyl)L] (H-[AllylGly]KK[AllylGly][Bpa]L-OH; staple 1-4) |  |  | 2 | < 4.00 | 6.94
CC(C)C[C@H](NC(=O)[C@H](Cc1c2ccccc2cc2ccccc12)NC(=O)[C@@H]1CC=CC[C@H](N)C(=O)N[C@@H](CCCCN)C(=O)N[C@@H](CCCCN)C(=O)N1)C(=O)O [compound 162, c[G(All)KKG(All)]A(anthryl-) L] (H-[AllylGly]KK[AllylGly][Ala(9-anthryl)]L-OH; staple 1-4) |  |  | 5249 | < 4.00 | 7.72
CC(C)C[C@H](NC(=O)[C@@H]1Cc2ccccc2CN1C(=O)[C@@H]1CC=CC[C@H](N)C(=O)N[C@@H](CCCCN)C(=O)N[C@@H](CCCCN)C(=O)N1)C(=O)O [compound 167, c[G(All)KKG(All)]G(Tic)*L*] (H-[AllylGly]KK[AllylGly][Tic]L-OH; staple 1-4) | < 4.00 | 96.2 nM | 1040 |  | 
CC(C)C[C@H](NC(=O)[C@H](Cc1cccc(Cl)c1)NC(=O)[C@@H]1CC=CC[C@H](N)C(=O)N[C@@H](CCCCN)C(=O)N[C@@H](CCCCN)C(=O)N1)C(=O)O [compound 113, c[G(All)KKG(All)]F(3-chloro)L] (H-[AllylGly]KK[AllylGly][Phe(3-Cl)]L-OH; staple 1-4) | < 4.00 | 48 nM | >2084 |  | 
CC(C)C[C@H](NC(=O)[C@@H](Cc1ccc(O)cc1)NC(=O)[C@@H]1CC=CC[C@H](N)C(=O)N[C@@H](CCCCN)C(=O)N[C@@H](CCCCN)C(=O)N1)C(=O)O [compound 21, c[G(All)KKG(All)]Y*L] (H-[AllylGly]KK[AllylGly][dY]L-OH; staple 1-4) | < 4.00 | 4700 nM |  |  | 
NCCCC[C@@H]1NC(=O)[C@H](CCCCN)NC(=O)[C@@H](N)CC=CC[C@@H](C(=O)N[C@@H](Cc2ccc(O)cc2)C(=O)N[C@@H](CCC2CCCCC2)C(=O)O)NC1=O [compound 64, c[G(All)KKG(All)]YA(homoChA)] (H-[AllylGly]KK[AllylGly]Y[hCha]-OH; staple 1-4) | < 4.00 | 7.74 nM | >12 920 |  | 
COc1ccc(C[C@H](NC(=O)[C@@H]2CC=CC[C@H](N)C(=O)N[C@@H](CCCCN)C(=O)N[C@@H](CCCCN)C(=O)N2)C(=O)N[C@@H](CC(C)C)C(=O)O)cc1 [compound 75, c[G(All)KKG(All)]Y(OMe)L] (H-[AllylGly]KK[AllylGly]Y(Me)L-OH; staple 1-4) | < 4.00 | 86.3 nM | >1159 |  | 
CC1(C(=O)N[C@@H](Cc2ccc(O)cc2)C(=O)N[C@@H](CC2CCCC2)C(=O)O)CCCC=CCCC(=O)N[C@@H](CCCCN)C(=O)N[C@@H](CCCCN)C(=O)N1 (stereo partly drawn) [compound 135, c[K(Pentenoyl)KG(alpha-Me-(4-pentenyl))]YA(cyclopentyl)] | < 4.00 | 45.9 nM | 2179 |  | 
CC(C)C[C@H](NC(=O)[C@H](Cc1ccc(O)cc1)NC(=O)[C@@H]1CCC(=O)NCC[C@H](N)C(=O)N[C@@H](CCCCN)C(=O)N[C@@H](CCCCN)C(=O)N1)C(=O)O [compound 99, c[DabKKE]YL] (H-[Dab]KKEYL-OH; lactam 1-4) | < 4.00 | 11000 nM | >9 |  | 
CC(C)C[C@H](NC(=O)[C@H](Cc1ccc(O)cc1)NC(=O)[C@@H]1CC=CC[C@H](N)C(=O)N[C@H](Cc2c[nH]cn2)C(=O)N[C@@H](CCCCN)C(=O)N1)C(=O)O [compound 84, c[G(All)H*KG(All)]YL] (H-[AllylGly][dH]K[AllylGly]YL-OH; staple 1-4) | < 4.00 | 646 nM | >154.9 |  | 
CC(C)C[C@H](NC(=O)[C@H](Cc1ccc(O)cc1)NC(=O)C1(C)CC=CCCC[C@H](N)C(=O)N[C@@H](CCCCN)C(=O)N[C@@H](CCCCN)C(=O)N1)C(=O)O (single isomer, unassigned) [compound 92, c[G(All)KKG*(alpha-Me-(4-Pentenyl))]YL] | < 4.00 | 511 nM | >196 |  | 

Further lines, with some results ahead:

pIC50 (hNTS1 receptor; [1]) | IC50 (hNTS2 receptor) | Selectivity (hNTS2 receptor) | Compound | pIC50 (hNTS1 receptor; [2]) | pIC50 (hNTS2 receptor)
< 4.00 | 10.2 nM | 9843 | CC(C)C[C@H](NC(=O)[C@H](Cc1ccc(Br)cc1)NC(=O)C1(C)CCCC=CC[C@H](N)C(=O)N[C@@H](CCCCN)C(=O)N[C@@H](CCCCN)C(=O)N1)C(=O)O (stereo partly drawn) [compound 130, c[G(All)KKG(alpha-Me-(4-pentenyl))]F(4-bromo)L] (H-[AllylGly]KK[ξαMeNle(6-ylidene)][Phe(4-Br)]L-OH; staple 1-4) |  | 
< 4.00 | 582 nM | 172 | CC(C)C[C@H](NC(=O)[C@H](C)NC(=O)[C@@H]1CC=CC[C@H](N)C(=O)N[C@@H](CCCCN)C(=O)N[C@@H](CCCCN)C(=O)N1)C(=O)O [compound 138, c[G(All)KKG(All)]AL] (H-[AllylGly]KK[AllylGly]AL-OH; staple 1-4) |  | 
< 4.00 | 40.2 nM | >2488 | CC(C)C[C@H](NC(=O)[C@H](Cc1ccc(C(C)(C)C)cc1)NC(=O)[C@@H]1CC=CC[C@H](N)C(=O)N[C@@H](CCCCN)C(=O)N[C@@H](CCCCN)C(=O)N1)C(=O)O [compound 110, c[G(All)KKG(All)]F(4-tbu)L] (H-[AllylGly]KK[AllylGly][Phe(4-tBu)]L-OH; staple 1-4) |  | 
< 4.00 | 621 nM | >161 | CC(C)C[C@H](NC(=O)[C@H](Cc1ccc(O)cc1)NC(=O)[C@@H]1CC=CC[C@H](N)C(=O)N[C@H](CCCCN)C(=O)N[C@@H](CCCCN)C(=O)N1)C(=O)O [compound 82, c[G(All)K*KG(All)]YL] (H-[AllylGly][dK]K[AllylGly]YL-OH; staple 1-4) |  | 
< 4.00 | 1100 nM | 90.9 | CC(C)C[C@H](NC(=O)[C@H](CCCCN)NC(=O)[C@@H]1CC=CC[C@H](N)C(=O)N[C@@H](CCCCN)C(=O)N[C@@H](CCCCN)C(=O)N1)C(=O)O [compound 17, c[G(All)KKG(All)]KL] (H-[AllylGly]KK[AllylGly]KL-OH; staple 1-4) |  | 
< 4.00 | 15.5 nM | >6452 | CC(C)C[C@H](NC(=O)[C@H](Cc1ccc(I)cc1)NC(=O)[C@@H]1CC=CC[C@H](N)C(=O)N[C@@H](CCCCN)C(=O)N[C@@H](CCCCN)C(=O)N1)C(=O)O [compound 78, c[G(All)KKG(All)]F(4-iodo)L] (H-[AllylGly]KK[AllylGly][Phe(4-I)]L-OH; staple 1-4) |  | 
< 4.00 | 131 nM | 766 | CC(C)C[C@H](NC(=O)[C@H](C/C=C/c1ccccc1)NC(=O)[C@@H]1CC=CC[C@H](N)C(=O)N[C@@H](CCCCN)C(=O)N[C@@H](CCCCN)C(=O)N1)C(=O)O [compound 161, c[G(All)KKG(All)]A(styryl) L] (H-[AllylGly]KK[AllylGly][Ala(E-styryl)]L-OH; staple 1-4) |  | 
< 4.00 | 276 nM | 362 | CC(C)C[C@H](NC(=O)[C@H](CC1CCC1)NC(=O)[C@@H]1CC=CC[C@H](N)C(=O)N[C@@H](CCCCN)C(=O)N[C@@H](CCCCN)C(=O)N1)C(=O)O [compound 143, c[G(All)KKG(All)]A (cyclobutyl)L] (H-[AllylGly]KK[AllylGly][Cba]L-OH; staple 1-4) |  | 
< 4.00 | 6.6 nM | 15244 | CC(C)C[C@H](NC(=O)[C@H](Cc1ccc(O)cc1)NC(=O)[C@@H]1CC=CC[C@H](NC(=O)[C@@H](N)CCCCN)C(=O)N[C@@H](CCCCN)C(=O)N[C@@H](CCCCN)C(=O)N1)C(=O)O [compound 156, Kc[G(All)KKG(All)]YL] (H-K[AllylGly]KK[AllylGly]YL-OH; staple 2-5) |  | 
< 4.00 | 10100 nM | >10 | CC(C)C[C@H](NC(=O)[C@@H](CCCCN)NC(=O)[C@@H]1CC=CC[C@H](N)C(=O)N[C@@H](CCCCN)C(=O)N[C@@H](CCCCN)C(=O)N1)C(=O)O [compound 48, c[G(All)KKG(All)]K*L] (H-[AllylGly]KK[AllylGly][dK]L-OH; staple 1-4) |  | 
4.00 | 10200 nM | 10 | CCC(C)[C@H](NC(=O)[C@H](Cc1ccc(O)cc1)NC(=O)[C@@H]1CC=CC[C@H](N)C(=O)N[C@@H](CCCCN)C(=O)N[C@@H](CCCCN)C(=O)N1)C(=O)O (some centres unmarked) [compound 14, c[G(All)KKG(All)]YI] (H-[AllylGly]KK[AllylGly]Y[Ile(3ξ)]-OH; staple 1-4) |  | 
